Results published in patent US10981896B2, “Indolinone derivatives as inhibitors of maternal embryonic leucine zipper kinase” (BOARD OF REGENTS, THE UNIVERSITY OF TEXAS SYSTEM, priority 2017, dated 2021).
Read-outs that look alike come from different tables or passages of the source. Blank lines part the entries; values can stand above or below the compound they belong to.

Key:
Type in all cases: biochemical
[1] = molecular target: MELK (Homo sapiens (Human), UniProt Q14680); assay: MELK p81-based kinase assay, dose-response (IC50/Ki); conditions: for IC50: 40 μM ATP
Protocol: MELK and its substrate, Bcl-G were both recombinantly expressed and purified for use in screening assays (See Methods). […] 10 nM MELK 340 and 10 μM Bcl-GL in kinase assay buffer (50 mM HEPES pH 7.5, 100 mM KCl, 0.1 mM EDTA, 0.1 mM EGTA, 10 mM MgCl2, 10 μg/mL BSA) with 10 mM DTT were added to either 10 μM or 1 μM inhibitor aliquoted into 96 well plates (final 1% DMSO). The mixture was incubated at room temperature for 30 minutes prior to initiation of the assay with 40 μM γ-^32P-ATP (100-1000 CPM/pmol). 40 μL aliquots were spotted onto a p81 96 well filter plate (Unifilter, Whatman), quenched, and washed with 75 mM O-phosphoric acid 8 times, followed by a final wash with acetone for drying. Wells were then filled with scintillation fluid, sealed, and quantified using a MicroBeta TriLux liquid scintillation counter (PerkinElmer). Each inhibitor plate was assayed in duplicate, with at least 4 wells without MELK to establish background and at least 4 wells without inhibitor as a negative control. All readings were corrected for background signal based on the average counts from the wells without enzyme. Percent inhibition, defined as [100−(CPM+inhibitor/average CPM of positive controls)*100], was determined first at 10 μM inhibitor. The top 50 inhibitors were then re-screened in duplicate at 1 μM.
At set time points (0.25, 0.5, 1, 1.5, and 2 min for assays containing 10 nM MELK and 1, 2, 4, 6, and 10 min for assays containing 1 nM MELK), 30 μL aliquots were taken from each reaction and spotted onto 2×2 cm squares of p81 paper. Papers were washed 4 times in 75 mM O-phosphoric acid and once in acetone. Labeled protein was quantified by its associated CPM determined on a Packard 1500 scintillation counter at a sigma value of 2. CPM were translated into nmol ^32P incorporated using Equation 1.
Rates in the presence of each concentration of inhibitor were determined by plotting nmol ^32P incorporated vs. time. These rates were normalized to rates obtained without inhibitor, and data were plotted in terms of fractional activity. In most cases, data were fit to Equation 2. If the IC50 approached the amount of enzyme used in the assay, data were re-fit to the equation for tight-binding inhibitors (the Morrison equation, […]). […] Data were transformed as discussed and fit to Equation 3.
IC50 values were used to estimate each inhibitor's Ki using the Cheng-Prusoff relationship for competitive inhibitors (Equation 4).

[2] = molecular target: AMPK (Rattus norvegicus (Rat), UniProt P54645); assay: Selectivity dose-response kinase assay, AMPK; conditions: 100 μM ATP
Source text: (§1) CHK1 and NUAK1 were purchased from SignalChem (Vancouver, BC). The NUAK2, CHK, and SAMS peptides were purchased from BioSyn (Lewisville, Tex.). The sequence of CHK and NUAK2 peptides are described elsewhere (Sanchez Y, et al. Science (New York, N.Y.). 1997; 277(5331):1497-1501; Scott J W, et al. Sci Rep. 2015; 5:14436). ERK2, AMPK, CAMKK2, and Ets1 were produced in house as previously described (Waas W F, Dalby K N. The Journal of biological chemistry. 2002; 277(15):12532-12540; Neumann D, et al. Protein Expr Purif. 2003; 30(2):230-237; Waas W F, Dalby K N. Protein Expr Purif. 2001; 23(1):191-197). Apparent KM values for ATP under specific assay conditions were determined using respective experimental conditions in Table 8 with varied ATP (0-1.28 mM). All selectivity dose-response assays were performed in kinase assay buffer (see Inhibitor Library Screen) with 2 mM DTT and 100 μM γ-^32P-ATP with additional conditions listed in Table 8. IC50 and KM^ATP values were subsequently used to calculate Ki (Equation 4). Relative selectivity was determined by comparing Ki^Enzyme/Ki^MELK (termed φ in Table 7). […] Standard error from linear regression data was propagated internally in Prism and taken into account in nonlinear regression to determine IC50 or Ki.

[3] = molecular target: AMPK; assay: Selectivity dose-response kinase assay, AMPK
Source text: as §1

[4] = molecular target: NUAK1 (Homo sapiens (Human), UniProt O60285); assay: Selectivity dose-response kinase assay, NUAK1; conditions: for Ki: 100 μM ATP
Source text: as §1

[5] = molecular target: CHK1 (Homo sapiens (Human), UniProt O14757); assay: Selectivity dose-response kinase assay, CHK1; conditions: for Ki: 100 μM ATP
Source text: as §1

[6] = molecular target: CAMKK2 (Homo sapiens (Human), UniProt Q96RR4); assay: Selectivity dose-response kinase assay, CAMKK2; conditions: for Ki: 100 μM ATP
Source text: as §1

[7] = molecular target: ERK2 (Rattus norvegicus (Rat), UniProt P63086); assay: Selectivity dose-response kinase assay, ERK2
Source text: as §1

[8] = cross-inhibition of MELK by known kinase inhibitors, read-out: IC50 ± SE
[9] = fragment and intermediate potency (synthetic intermediates), read-out: Ki ± SD
[10] = Ki calculated using Equation 4, [ATP] = 40 μM, KM app (ATP) = 6 μM
[11] = Ki calculated using Equation 4, [ATP] = 40 μM, KM app (ATP) = 6 μM, read-out: Ki ± SE
[12] = indolinone derivatives, read-out: IC50
[13] = selectivity table, MELK, read-out: Ki

Sequence of ERK2 (P63086 whole entry): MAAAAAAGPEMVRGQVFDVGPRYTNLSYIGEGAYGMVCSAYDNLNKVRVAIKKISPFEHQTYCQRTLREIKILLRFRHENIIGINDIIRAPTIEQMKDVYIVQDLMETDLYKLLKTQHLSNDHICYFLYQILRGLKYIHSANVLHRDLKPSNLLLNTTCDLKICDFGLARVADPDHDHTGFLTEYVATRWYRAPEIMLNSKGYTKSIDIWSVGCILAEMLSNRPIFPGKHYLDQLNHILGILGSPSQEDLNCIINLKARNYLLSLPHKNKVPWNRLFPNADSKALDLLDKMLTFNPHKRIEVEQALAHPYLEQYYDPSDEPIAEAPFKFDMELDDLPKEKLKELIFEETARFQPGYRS
Sequence of MELK (Q14680 1-340): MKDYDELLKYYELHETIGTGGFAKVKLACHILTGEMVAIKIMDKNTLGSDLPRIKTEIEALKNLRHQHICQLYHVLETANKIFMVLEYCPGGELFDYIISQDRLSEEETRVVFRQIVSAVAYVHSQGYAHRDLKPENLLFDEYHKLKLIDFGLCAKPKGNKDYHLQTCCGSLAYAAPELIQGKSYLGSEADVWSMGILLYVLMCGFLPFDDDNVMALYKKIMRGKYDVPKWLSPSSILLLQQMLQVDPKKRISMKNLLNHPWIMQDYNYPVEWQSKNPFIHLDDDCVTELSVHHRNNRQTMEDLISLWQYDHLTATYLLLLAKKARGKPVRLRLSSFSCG
Sequence of CHK1 (O14757 whole entry): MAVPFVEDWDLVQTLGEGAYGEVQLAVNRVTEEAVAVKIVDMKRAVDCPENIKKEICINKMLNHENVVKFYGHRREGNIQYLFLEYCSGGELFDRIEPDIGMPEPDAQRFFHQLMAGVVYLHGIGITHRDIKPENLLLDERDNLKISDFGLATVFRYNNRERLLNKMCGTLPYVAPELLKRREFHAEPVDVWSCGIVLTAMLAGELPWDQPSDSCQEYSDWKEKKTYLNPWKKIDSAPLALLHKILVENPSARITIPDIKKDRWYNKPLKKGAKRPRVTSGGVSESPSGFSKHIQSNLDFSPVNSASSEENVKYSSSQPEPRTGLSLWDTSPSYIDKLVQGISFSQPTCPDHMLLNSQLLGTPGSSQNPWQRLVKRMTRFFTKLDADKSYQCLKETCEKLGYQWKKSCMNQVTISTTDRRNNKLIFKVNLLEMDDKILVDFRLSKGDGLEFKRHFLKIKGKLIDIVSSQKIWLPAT
Sequence of CAMKK2 (Q96RR4 whole entry, species assumed): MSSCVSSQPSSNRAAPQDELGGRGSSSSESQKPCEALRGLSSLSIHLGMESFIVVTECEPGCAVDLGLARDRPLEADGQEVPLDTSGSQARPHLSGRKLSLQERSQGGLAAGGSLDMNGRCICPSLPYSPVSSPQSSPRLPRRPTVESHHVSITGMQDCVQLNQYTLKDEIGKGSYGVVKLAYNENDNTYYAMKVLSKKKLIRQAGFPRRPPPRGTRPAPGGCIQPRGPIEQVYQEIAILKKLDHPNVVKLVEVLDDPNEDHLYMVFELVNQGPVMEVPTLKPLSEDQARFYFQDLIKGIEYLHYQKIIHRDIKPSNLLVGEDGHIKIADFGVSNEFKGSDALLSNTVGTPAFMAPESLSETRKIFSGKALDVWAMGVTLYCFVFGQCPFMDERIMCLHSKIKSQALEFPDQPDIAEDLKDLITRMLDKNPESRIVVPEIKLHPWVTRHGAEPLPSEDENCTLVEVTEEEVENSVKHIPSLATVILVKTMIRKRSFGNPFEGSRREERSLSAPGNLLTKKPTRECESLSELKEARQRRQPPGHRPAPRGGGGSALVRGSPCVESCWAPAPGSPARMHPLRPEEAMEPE
Sequence of NUAK1 (O60285 whole entry): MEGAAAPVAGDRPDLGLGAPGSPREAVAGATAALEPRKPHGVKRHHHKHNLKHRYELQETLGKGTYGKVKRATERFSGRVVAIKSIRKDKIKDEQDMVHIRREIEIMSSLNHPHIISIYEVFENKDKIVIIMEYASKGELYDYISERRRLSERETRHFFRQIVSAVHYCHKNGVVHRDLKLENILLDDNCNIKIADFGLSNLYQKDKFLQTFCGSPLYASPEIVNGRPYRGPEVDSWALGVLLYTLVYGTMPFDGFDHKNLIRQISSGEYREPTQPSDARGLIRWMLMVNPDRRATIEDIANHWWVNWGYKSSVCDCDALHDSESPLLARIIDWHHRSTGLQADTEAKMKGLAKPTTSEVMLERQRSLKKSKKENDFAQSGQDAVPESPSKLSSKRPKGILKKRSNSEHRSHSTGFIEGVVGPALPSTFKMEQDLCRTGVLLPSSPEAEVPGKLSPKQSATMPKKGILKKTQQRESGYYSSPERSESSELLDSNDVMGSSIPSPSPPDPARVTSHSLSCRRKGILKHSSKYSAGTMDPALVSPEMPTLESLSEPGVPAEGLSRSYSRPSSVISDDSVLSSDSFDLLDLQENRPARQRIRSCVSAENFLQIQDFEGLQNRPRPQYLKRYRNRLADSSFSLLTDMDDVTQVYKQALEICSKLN
Sequence of AMPK (Rattus norvegicus (Rat), UniProt P54645) (P54645 whole entry, looked up): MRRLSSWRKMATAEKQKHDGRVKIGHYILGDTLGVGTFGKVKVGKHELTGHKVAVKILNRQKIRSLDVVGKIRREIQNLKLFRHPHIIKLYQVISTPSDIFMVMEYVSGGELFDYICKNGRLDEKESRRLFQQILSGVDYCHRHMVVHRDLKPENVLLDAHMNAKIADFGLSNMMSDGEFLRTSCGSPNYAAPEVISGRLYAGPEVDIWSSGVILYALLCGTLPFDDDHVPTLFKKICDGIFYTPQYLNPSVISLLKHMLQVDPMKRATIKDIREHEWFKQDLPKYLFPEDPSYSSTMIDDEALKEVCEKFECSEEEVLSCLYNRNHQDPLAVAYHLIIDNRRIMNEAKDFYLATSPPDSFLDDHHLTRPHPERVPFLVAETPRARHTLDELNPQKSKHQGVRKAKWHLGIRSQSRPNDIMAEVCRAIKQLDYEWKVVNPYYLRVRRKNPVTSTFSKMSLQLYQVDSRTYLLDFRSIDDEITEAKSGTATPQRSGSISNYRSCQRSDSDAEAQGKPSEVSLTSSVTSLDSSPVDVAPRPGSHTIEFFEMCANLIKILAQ
Sequence of AMPK (Rattus norvegicus (Rat), UniProt P54645) (P80386 whole entry partner, looked up): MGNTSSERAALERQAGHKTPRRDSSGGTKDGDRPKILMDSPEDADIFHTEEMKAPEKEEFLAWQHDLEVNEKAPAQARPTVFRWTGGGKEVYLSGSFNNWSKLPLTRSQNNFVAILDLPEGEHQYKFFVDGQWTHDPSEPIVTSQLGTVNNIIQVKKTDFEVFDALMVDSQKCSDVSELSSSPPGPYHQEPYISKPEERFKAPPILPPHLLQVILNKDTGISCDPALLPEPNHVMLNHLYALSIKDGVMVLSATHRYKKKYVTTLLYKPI
Sequence of AMPK (Rattus norvegicus (Rat), UniProt P54645) (P80385 whole entry partner, looked up): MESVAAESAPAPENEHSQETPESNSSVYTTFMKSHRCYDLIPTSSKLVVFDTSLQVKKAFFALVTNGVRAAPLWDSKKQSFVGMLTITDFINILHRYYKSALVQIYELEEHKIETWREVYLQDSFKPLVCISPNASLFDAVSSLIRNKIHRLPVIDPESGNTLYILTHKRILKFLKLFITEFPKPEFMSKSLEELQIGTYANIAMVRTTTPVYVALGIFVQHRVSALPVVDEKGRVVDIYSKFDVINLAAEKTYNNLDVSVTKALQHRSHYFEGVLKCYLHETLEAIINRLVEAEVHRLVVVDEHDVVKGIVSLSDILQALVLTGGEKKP

Structure (SMILES): NC(=O)Nc1cc(-c2cccc(F)c2)sc1C(=O)N[C@@H]1CCCNC1 [AZD776, reference compound]
IC50 [1, 8]: 0.9 ± 0.091 µM

Structure (SMILES): O=C1Nc2ccc3scnc3c2/C1=C/c1cnc[nH]1 [Compound 527450, reference compound]
IC50 [1, 8]: 0.72 ± 0.1 µM

Structure (SMILES): CCS(=O)(=O)Nc1ccc2c(c1)/C(=C(/Nc1ccc(CN3CCCCC3)cc1)c1ccccc1)C(=O)N2 [Hesperadin, reference compound]
IC50 [1, 8]: 0.225 ± 0.05 µM

Structure (SMILES): Cc1ccc([N+](=O)[O-])cc1S(=O)(=O)N(C)/N=C/c1cnc2ccc(Br)cn12 [PIK75, reference compound]
IC50 [1, 8]: 0.4 ± 0.072 µM

Structure (SMILES): CCN(CC)CCNC(=O)c1c(C)[nH]c(/C=C2\C(=O)Nc3ccc(Cl)cc32)c1C [Compound 572660, reference compound]
IC50 [1, 8]: 0.76 ± 0.19 µM

Structure (SMILES): CC(=O)c1ccc2c(c1)/C(=C(/Nc1ccc(N(C)C(=O)CN3CCN(C)CC3)cc1)c1ccccc1)C(=O)N2 [Compound 18, (Z)—N-(4-(((5-Acetyl-2-oxoindolin-3-ylidene)(phenyl)methyl)amino)phenyl)-N-methyl-2-(4-methylpiperazin-1-yl)acetamide]
Ki [1, 11]: 0.046 ± 0.0046 µM
IC50 [1, 12]: 0.354 ± 0.035 µM

Structure (SMILES): CN1CCN(CC(=O)N(C)c2ccc(N)cc2)CC1 [Compound 14, N-(4-Aminophenyl)-N-methyl-2-(4-methylpiperazin-1-yl)acetamide]
Ki [1, 9]: > 5 µM

Structure (SMILES): CC(C)(C)c1nc2c3ccc(F)cc3c3c(=O)[nH]ccc3c2[nH]1 [Compound 420099, reference compound]
IC50 [1, 8]: 0.33 ± 0.037 µM

Structure (SMILES): N=C(N)NCCNS(=O)(=O)c1cccc2cnccc12 [HA-1004, reference compound]
IC50 [1, 8]: 0.44 ± 0.21 µM

Structure (SMILES): CN1CCN(CC(=O)N(C)c2ccc(N/C(=C3\C(=O)Nc4ccccc43)c3ccccc3)cc2)CC1 [Compound 16, (Z)—N-Methyl-2-(4-methylpiperazin-1-yl)-N-(4-(((2-oxoindolin-3-ylidene)(phenyl)methyl)amino)phenyl)acetamide]
Ki ± SE [1, 10]: subnanomolar
Ki [1, 11]: 0.00047 µM
IC50 [1, 12]: 0.0036 ± 0.0004 µM
Ki [1, 13]: 0.00047 ± 6e-05 µM
Ki [2]: 0.0042 ± 0.0003 µM
difference in Ki compared to MELK [3]: 5-10 fold
difference in Ki compared to MELK [4]: 5-10 fold
Ki [4]: 0.0017 ± 0.00017 µM
Ki [5]: 0.01 ± 0.0005 µM
Ki [6]: 0.015 ± 0.0018 µM

Structure (SMILES): CN1CCN(CC(=O)N(C)c2ccc(N/C(=C3\C(=O)Nc4cc(C(=O)NCCCN)ccc43)c3ccccc3)cc2)CC1 [Compound 23, (Z)—N-(3-Aminopropyl)-3-(((4-(N-methyl-2-(4-methylpiperazin-1-yl)acetamido)phenyl)amino)(phenyl)methylene)-2-oxoindoline-6-carboxamide]
IC50 [1, 12]: > 5 µM

The next lines start with the values.

Ki [1, 9]: > 5 µM
Structure (SMILES): CCO/C(=C1\C(=O)N(C(C)=O)c2cc(C(=O)OC)ccc21)c1ccccc1 [Compound 6, Methyl (Z)-1-acetyl-3-(ethoxy(phenyl)methylene)-2-oxoindoline-6-carboxylate]

Ki ± SE [1, 10]: subnanomolar
Ki [1, 11]: 0.00068 ± 7e-05 µM
φ = Ki Enzyme/Ki MELK ([1]; MELK): 1.00
IC50 [1, 12]: 0.0052 ± 0.0005 µM
Ki [1, 13]: 0.00068 ± 7e-05 µM
Ki [2]: 0.0049 ± 0.0006 µM
φ = Ki Enzyme/Ki MELK [3]: 7.2 ± 0.2
φ = Ki Enzyme/Ki MELK [4]: 13 ± 0.2
Ki [4]: 0.0086 ± 0.0016 µM
difference in relative Ki compared to MELK [5]: > 100 fold
φ = Ki Enzyme/Ki MELK [5]: 120 ± 0.1
Ki [5]: 0.081 ± 0.0056 µM
difference in relative Ki compared to MELK [6]: > 100 fold
φ = Ki Enzyme/Ki MELK [6]: 125 ± 0.2
Ki [6]: 0.085 ± 0.0092 µM
difference in relative Ki compared to MELK [7]: > 100 fold
φ = Ki Enzyme/Ki MELK [7]: 28000 ± 0.2
Ki ([7]; 100 μM ATP): 19 ± 3.8 µM
Structure (SMILES): CN1CCN(CC(=O)N(C)c2ccc(N/C(=C3\C(=O)Nc4ccc(C(=O)O)cc43)c3ccccc3)cc2)CC1 [Compound 21, (Z)-3-(((4-(N-Methyl-2-(4-methylpiperazin-1-yl)acetamido)phenyl)amino)(phenyl)methylene)-2-oxoindoline-5-carboxylic acid]

IC50 [1, 8]: 0.34 ± 0.07 µM
Structure (SMILES): c1cc(OCCN2CCCCC2)cc(-c2n[nH]c3ccc(-c4nc[nH]n4)cc23)c1 [CC401, reference compound]

Ki [1, 9]: > 5 µM
Structure (SMILES): CCO/C(=C1\C(=O)N(C(C)=O)c2ccc(C(=O)OC)cc21)c1ccccc1 [Compound 8, Methyl (Z)-1-acetyl-3-(ethoxy(phenyl)methylene)-2-oxoindoline-5-carboxylate]

Ki [1, 11]: 0.0023 µM
IC50 [1, 12]: 0.018 ± 0.0038 µM
Structure (SMILES): CNC(=O)c1ccc2c(c1)/C(=C(/Nc1ccc(N(C)C(=O)CN3CCN(C)CC3)cc1)c1ccccc1)C(=O)N2 [Compound 24, (Z)—N-Methyl-3-(((4-(N-methyl-2-(4-methylpiperazin-1-yl)acetamido)phenyl)amino)(phenyl)methylene)-2-oxoindoline-5-carboxamide]

Ki [1, 11]: 0.358 ± 0.071 µM
IC50 [1, 12]: 2.7 ± 0.54 µM
Structure (SMILES): CN(C)CCCNC(=O)c1ccc2c(c1)NC(=O)/C2=C(\Nc1ccc(N(C)C(=O)CN2CCN(C)CC2)cc1)c1ccccc1 [Compound 22, (Z)—N-(3-(Dimethylamino)propyl)-3-(((4-(N-methyl-2-(4-methylpiperazin-1-yl)acetamido)phenyl)amino)(phenyl)methylene)-2-oxoindoline-6-carboxamide]

Ki [1, 11]: 0.149 ± 0.022 µM
IC50 [1, 12]: 1.15 ± 0.168 µM
Structure (SMILES): CN1CCN(CC(=O)N(C)c2ccc(N/C(=C3\C(=O)Nc4cc(C(=O)O)ccc43)c3ccccc3)cc2)CC1 [Compound 20, (Z)-3-(((4-(N-Methyl-2-(4-methylpiperazin-1-yl)acetamido)phenyl)amino)(phenyl)methylene)-2-oxoindoline-6-carboxylic acid]
